Reference: patent US20130109682A1, “CYCLIC ETHER COMPOUNDS USEFUL AS KINASE INHIBITORS” (NOVARTIS AG, priority 2010, published 2013)

How the values were obtained:
[1] = molecular target: PIM2 (Homo sapiens, UniProt Q9P1W9); experiment: KinaseGlo Pim2 ATP depletion assay; format: biochemical
How it was run: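 Compound sat 15 min with enzyme and BAD peptide before ATP was added; final levels 5 nM PIM2, 10 μM peptide, 4 μM ATP, 2.5% DMSO, pH 7.5 HEPES buffer with MgCl2, DTT, BSA. Stopped near 50% ATP consumption; remaining ATP measured by luciferase luminescence.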

[2] = molecular target: PIM3 (Homo sapiens, UniProt Q86V86); experiment: KinaseGlo Pim3 ATP depletion assay; format: biochemical
How it was run: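 Residual ATP was detected by luciferase luminescence once about half had been consumed. The reaction contained 5 nM enzyme, 100 μM BAD peptide (RSRHSSYPAGT) and 40 μM ATP in 50 mM HEPES pH 7.5, 5 mM MgCl2, 1 mM DTT and 0.05% BSA with 2.5% DMSO. Compound and enzyme/peptide were premixed 15 min before ATP.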

[3] = system: KMS11 (human myeloma cell line); experiment: Cell proliferation assay (CellTiter-Glo), KMS11; format: cell-based; details: Homo sapiens, KMS-11; KMS11-Luc cells
How it was run: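 EC50 derived from CellTiter-Glo luminescence after 3-day exposure at 37° C. Compound was diluted to 2× in medium and added to an equal volume of cells. KMS11 myeloma cells were plated on assay day at 2000/well in IMDM with 10% FBS and sodium pyruvate.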

[4] = molecular target: PIM1 (Homo sapiens, UniProt P11309); experiment: KinaseGlo Pim1 ATP depletion assay; format: biochemical
Sequence of PIM1 (P11309 whole entry): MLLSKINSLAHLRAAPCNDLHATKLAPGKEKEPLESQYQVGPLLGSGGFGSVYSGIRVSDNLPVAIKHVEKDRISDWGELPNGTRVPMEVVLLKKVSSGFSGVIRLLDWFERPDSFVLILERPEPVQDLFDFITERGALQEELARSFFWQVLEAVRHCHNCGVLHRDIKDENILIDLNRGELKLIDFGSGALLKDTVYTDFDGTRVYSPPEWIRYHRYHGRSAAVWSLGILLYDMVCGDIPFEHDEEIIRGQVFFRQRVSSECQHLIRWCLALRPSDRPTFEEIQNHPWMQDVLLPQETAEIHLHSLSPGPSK
How it was run: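 IC50 is derived from residual ATP measured by KinaseGlo Plus luminescence once about half the ATP was consumed. Final conditions were 20 μM ATP, 40 μM BAD peptide and 2.5 nM kinase in HEPES pH 7.5 buffer with MgCl2, DTT and BSA, plus 2.5% DMSO. Compound and enzyme were premixed 15 min before ATP addition.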

[5] = molecular target: GSK3β (Homo sapiens, UniProt P49841); experiment: GSK3β ATP depletion assay; format: biochemical; details: read-out: GSK3b IC50
Sequence of GSK3β (P49841 whole entry, species assumed): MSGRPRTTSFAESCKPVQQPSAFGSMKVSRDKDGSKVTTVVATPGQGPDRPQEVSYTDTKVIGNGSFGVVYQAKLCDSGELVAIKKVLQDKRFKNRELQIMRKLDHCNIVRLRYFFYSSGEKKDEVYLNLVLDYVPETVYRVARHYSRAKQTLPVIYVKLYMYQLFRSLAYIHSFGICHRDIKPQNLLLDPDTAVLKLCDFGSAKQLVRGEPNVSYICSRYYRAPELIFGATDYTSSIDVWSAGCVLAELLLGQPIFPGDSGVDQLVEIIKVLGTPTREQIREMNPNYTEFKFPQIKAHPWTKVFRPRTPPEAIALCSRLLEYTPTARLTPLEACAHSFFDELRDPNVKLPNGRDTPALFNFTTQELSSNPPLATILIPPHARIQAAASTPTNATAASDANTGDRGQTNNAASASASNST
How it was run: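 Kinase activity is read as ATP consumption: luciferase luminescence reports the ATP remaining once roughly half of the 2 μM ATP is used. Reaction mix: 5 nM GSK3β, 10 μM b-CREB peptide, 50 mM Tris pH 7.5, 15 mM MgCl2, 1 mM DTT, 0.1% BSA, 2.5% DMSO. Enzyme and peptide are preincubated 15 min before ATP is added.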

[6] = molecular target: T1, hERG (Homo sapiens, UniProt Q12809); experiment: hERG binding assay ([3H] dofetilide displacement); details: dofetilide displacement; read-out: HERGdof IC50
T1 construct: host or cells: crude membrane suspension
T1 sequence (Q12809 whole entry): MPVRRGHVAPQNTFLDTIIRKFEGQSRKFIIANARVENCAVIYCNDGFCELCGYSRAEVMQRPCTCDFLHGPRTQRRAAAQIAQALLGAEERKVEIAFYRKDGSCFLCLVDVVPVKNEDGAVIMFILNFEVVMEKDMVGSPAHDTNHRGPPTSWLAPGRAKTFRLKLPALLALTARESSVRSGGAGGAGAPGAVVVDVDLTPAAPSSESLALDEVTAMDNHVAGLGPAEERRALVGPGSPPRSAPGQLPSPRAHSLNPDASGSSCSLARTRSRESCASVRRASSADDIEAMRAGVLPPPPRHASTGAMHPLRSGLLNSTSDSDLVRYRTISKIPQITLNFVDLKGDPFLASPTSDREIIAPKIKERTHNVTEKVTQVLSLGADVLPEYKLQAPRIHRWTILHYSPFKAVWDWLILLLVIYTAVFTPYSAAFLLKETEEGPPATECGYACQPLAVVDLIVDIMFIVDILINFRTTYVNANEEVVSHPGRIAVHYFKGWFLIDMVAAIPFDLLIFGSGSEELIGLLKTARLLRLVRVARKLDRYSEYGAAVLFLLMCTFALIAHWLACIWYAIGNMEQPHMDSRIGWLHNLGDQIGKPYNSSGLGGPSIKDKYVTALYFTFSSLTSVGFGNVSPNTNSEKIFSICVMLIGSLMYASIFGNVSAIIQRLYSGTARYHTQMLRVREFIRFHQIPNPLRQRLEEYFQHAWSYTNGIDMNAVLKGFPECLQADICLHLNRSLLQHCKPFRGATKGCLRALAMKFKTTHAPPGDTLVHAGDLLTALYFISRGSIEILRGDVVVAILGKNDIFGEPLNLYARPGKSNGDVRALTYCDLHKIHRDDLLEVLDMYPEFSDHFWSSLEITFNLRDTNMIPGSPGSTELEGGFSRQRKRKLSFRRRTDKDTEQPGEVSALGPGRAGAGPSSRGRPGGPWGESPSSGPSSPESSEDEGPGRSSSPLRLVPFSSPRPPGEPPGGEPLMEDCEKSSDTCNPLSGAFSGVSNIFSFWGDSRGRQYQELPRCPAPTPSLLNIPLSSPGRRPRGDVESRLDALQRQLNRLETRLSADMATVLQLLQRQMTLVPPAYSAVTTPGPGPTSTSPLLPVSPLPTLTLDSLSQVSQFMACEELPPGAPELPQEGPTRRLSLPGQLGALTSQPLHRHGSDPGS
Description: Compounds of the invention were pipetted into each well of pre-wet 96-well Millipore GF/C filter plates (#MSFCN6B50): 119 μl assay buffer, 1 μl test compound in 100% DMSO (or 100% DMSO only for total binding), 40 μl [3H] dofetilide (12.5 nM, final concentration 2.5 nM; Novartis radioisotope laboratory, East Hanover, N.J., USA, specific activity 15-45 Ci/mmol); 40 μl crude membrane suspension (ca. 15 μg protein). The final concentration of DMSO during the incubation was 0.5%. Incubations were performed at room temperature for 90 min. Non-specific binding (NSB) was defined as the binding remaining in the presence of 25 μM terfenadine (Sigma T9652). The incubations were terminated by rapid filtration on a Millipore filtration manifold, followed by three washes of 200 μA ice-cold assay buffer. The plates were left to dry overnight before adding 40 μA scintillant (MicroScint-20). The plates were then sealed (Sealing Tape SI, Nunc 236366) and read in a Wallac MicroBeta Trilux beta-counter for 1.5 min per well. Compounds were tested as 9-concentration response curves in duplicate, ranging from 30 μM to 3 nM in 1:3 dilution steps. Dilution curves were prepared in 100% DMSO. The reference compound (terfenadine) was tested as an eight-concentration response curve, ranging from 10 μM to 0.6 nM in 1:4 dilution steps.

Sequence of PIM2 (Q9P1W9 whole entry): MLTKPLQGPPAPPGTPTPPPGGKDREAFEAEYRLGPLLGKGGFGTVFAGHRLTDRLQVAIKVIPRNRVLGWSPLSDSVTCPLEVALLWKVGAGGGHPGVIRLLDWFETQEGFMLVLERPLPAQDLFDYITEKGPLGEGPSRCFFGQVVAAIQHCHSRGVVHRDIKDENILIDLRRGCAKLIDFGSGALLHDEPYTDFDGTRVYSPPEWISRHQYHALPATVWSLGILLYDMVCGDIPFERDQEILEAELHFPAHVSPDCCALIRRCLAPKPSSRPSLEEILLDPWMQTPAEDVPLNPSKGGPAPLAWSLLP

IC50 [1] [nM]	IC50 [2] [nM]	EC50 [3] [nM]	IC50 [4] [nM]	IC50 [5] [nM]	Compound	IC50 [6] [nM]
20600	564	> 10000	221	257	C[C@H]1O[C@@H](c2ccncc2NC(=O)c2cncc(-c3ccccc3)n2)C[C@@H](O)[C@]1(C)O [Example 85, N-(4-((2R,4R,5S,6R)-4,5-dihydroxy-5,6-dimethyltetrahydro-2H-pyran-2-yl)pyridin-3-yl)-6-phenylpyrazine-2-carboxamide]	> 30000
> 25000	2670	> 10000	937	809	C[C@@H]1O[C@H](c2ccncc2NC(=O)c2cncc(-c3ccccc3)n2)C[C@H](O)[C@@]1(C)O [Example 87, N-(4-((2S,4S,5R,6S)-4,5-dihydroxy-5,6-dimethyltetrahydro-2H-pyran-2-yl)pyridin-3-yl)-6-phenylpyrazine-2-carboxamide]	> 30000
2	3	500	2	916	CC(C)NC(=O)c1ccc(F)c(-c2ccc(N)c(C(=O)Nc3cnccc3[C@@H]3C[C@@H](O)[C@](C)(O)[C@@H](C)O3)n2)c1F [Example 98, 3-amino-6-(2,6-difluoro-3-(isopropylcarbamoyl)phenyl)-N-(4-((2S,4R,5S,6R)-4,5-dihydroxy-5,6-dimethyltetrahydro-2H-pyran-2-yl)pyridin-3-yl)picolinamide]	> 30000
3	2	2300	2	979	CC(C)NC(=O)c1ccc(F)c(-c2ccc(N)c(C(=O)Nc3cnccc3[C@H]3C[C@@H](O)[C@](C)(O)[C@@H](C)O3)n2)c1 [Example 104, 3-amino-N-(4-((2R,4R,5S,6R)-4,5-dihydroxy-5,6-dimethyltetrahydro-2H-pyran-2-yl)pyridin-3-yl)-6-(2-fluoro-5-(isopropylcarbamoyl)phenyl)picolinamide]	> 30000
5	2	1300	1	225	C[C@@H]1O[C@H](c2ccncc2NC(=O)c2ccc(F)c(-c3c(F)cccc3F)n2)C[C@H](N)[C@H]1O [Example 115, N-(4-((2S,4S,5R,6S)-4-amino-5-hydroxy-6-methyltetrahydro-2H-pyran-2-yl)pyridin-3-yl)-6-(2,6-difluorophenyl)-5-fluoropicolinamide]	22000
795	44	4700	9	3230	C[C@@H]1C[C@H](N)C[C@H](c2ccncc2NC(=O)c2csc(-c3c(F)cccc3F)n2)O1 [Example 121, N-(4-((2R,4S,6R)-4-amino-6-methyltetrahydro-2H-pyran-2-yl)pyridin-3-yl)-2-(2,6-difluorophenyl)thiazole-4-carboxamide]	10000
45	10	4700	2	12300	C[C@@H]1C[C@H](N)C[C@H](c2ccncc2NC(=O)c2ccc(F)c(-c3c(F)cccc3F)n2)O1 [Example 122, N-(4-((2R,4S,6R)-4-amino-6-methyltetrahydro-2H-pyran-2-yl)pyridin-3-yl)-6-(2,6-difluorophenyl)-5-fluoropicolinamide]	2000
44	7	4200	1	421	C[C@H]1C[C@@H](N)C[C@@H](c2ccncc2NC(=O)c2csc(-c3c(F)cccc3F)n2)O1 [Example 123, N-(4-((2S,4R,6S)-4-amino-6-methyltetrahydro-2H-pyran-2-yl)pyridin-3-yl)-2-(2,6-difluorophenyl)thiazole-4-carboxamide]	12000
